The source of these data is PMC2693460 (Cancer chemotherapy and pharmacology, 2009).

In this test the target is T1, ABCG2 (Homo sapiens, UniProt Q9UNQ0).
T1 sequence (Q9UNQ0 1-655): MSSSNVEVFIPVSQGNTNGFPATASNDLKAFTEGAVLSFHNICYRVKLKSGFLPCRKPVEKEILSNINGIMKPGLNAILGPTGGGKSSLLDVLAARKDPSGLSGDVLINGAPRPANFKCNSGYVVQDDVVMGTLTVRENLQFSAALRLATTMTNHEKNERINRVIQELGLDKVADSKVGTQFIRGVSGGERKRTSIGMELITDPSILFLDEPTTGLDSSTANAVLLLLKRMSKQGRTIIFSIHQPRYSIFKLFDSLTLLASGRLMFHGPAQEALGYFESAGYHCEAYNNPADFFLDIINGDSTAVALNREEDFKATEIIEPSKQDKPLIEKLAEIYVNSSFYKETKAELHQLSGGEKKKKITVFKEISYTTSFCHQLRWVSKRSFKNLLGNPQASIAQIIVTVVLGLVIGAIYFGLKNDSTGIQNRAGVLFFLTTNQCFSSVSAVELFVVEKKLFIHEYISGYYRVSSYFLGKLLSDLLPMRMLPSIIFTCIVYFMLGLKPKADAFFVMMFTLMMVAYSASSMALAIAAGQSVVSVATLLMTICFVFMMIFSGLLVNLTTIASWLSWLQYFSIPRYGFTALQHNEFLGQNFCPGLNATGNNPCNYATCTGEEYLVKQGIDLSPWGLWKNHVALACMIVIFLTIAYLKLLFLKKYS
In kind it is binding.

The term IC50 denotes the concentration needed to halve the response being measured. Low values mean greater potency, high ones weaker potency.

On to `CCN(CC)CCN1C(=O)c2c(c3c4cccc(Cl)c4n([C@@H]4O[C@H](CO)[C@@H](OC)[C@H](O)[C@H]4O)c3c3[nH]c4c(Cl)cccc4c23)C1=O` [becatecarin], for which half-maximal inhibition (IC50) required 2100 nM.
